From the supplement of paper PMC13380429
± gives the standard deviation of the averaged measurements.

Columns and labels:
Details in all cases: 72 h
HepG2 [1] = assay: cell viability relative to DMSO; higher = less toxic
U2OS [2] = assay: as above
Calu-3 [3] = assay: as above
Vero E6 [4] = assay: as above
Caco-2 [5] = assay: as above
HepG2 [6] = assay: drug sensitivity score (DSS) for viability; higher = more toxic; extreme values may be limits of the assay
U2OS [7] = assay: as above
Calu-3 [8] = assay: as above
Vero E6 [9] = assay: as above
Caco-2 [10] = assay: as above
HepG2 [11] = assay: relative viability EC50 (midpoint between 100% and the lowest measured viability); higher = less toxic
U2OS [12] = assay: as above
Calu-3 [13] = assay: as above
Vero E6 [14] = assay: as above
Caco-2 [15] = assay: as above

| SMILES | cell viability (HepG2 [1]; 1 nM) [%] | cell viability (HepG2 [1]; 10 nM) [%] | cell viability (HepG2 [1]; 100 nM) [%] | cell viability (HepG2 [1]; 1000 nM) [%] | cell viability (HepG2 [1]; 10000 nM) [%] | cell viability (U2OS [2]; 1 nM) [%] | cell viability (U2OS [2]; 10 nM) [%] | cell viability (U2OS [2]; 100 nM) [%] | cell viability (U2OS [2]; 1000 nM) [%] | cell viability (U2OS [2]; 10000 nM) [%] | cell viability (Calu-3 [3]; 1 nM) [%] | cell viability (Calu-3 [3]; 10 nM) [%] | cell viability (Calu-3 [3]; 100 nM) [%] | cell viability (Calu-3 [3]; 1000 nM) [%] | cell viability (Calu-3 [3]; 10000 nM) [%] | cell viability (Vero E6 [4]; 1 nM) [%] | cell viability (Vero E6 [4]; 10 nM) [%] | cell viability (Vero E6 [4]; 100 nM) [%] | cell viability (Vero E6 [4]; 1000 nM) [%] | cell viability (Vero E6 [4]; 10000 nM) [%] | cell viability (Caco-2 [5]; 1 nM) [%] | cell viability (Caco-2 [5]; 10 nM) [%] | cell viability (Caco-2 [5]; 100 nM) [%] | cell viability (Caco-2 [5]; 1000 nM) [%] | cell viability (Caco-2 [5]; 10000 nM) [%] | drug sensitivity score (HepG2 [6]) | drug sensitivity score (U2OS [7]) | drug sensitivity score (Calu-3 [8]) | drug sensitivity score (Vero E6 [9]) | drug sensitivity score (Caco-2 [10]) | relative viability EC50 (HepG2 [11]) [µM] | relative viability EC50 (U2OS [12]) [µM] | relative viability EC50 (Calu-3 [13]) [µM] | relative viability EC50 (Vero E6 [14]) [µM] | relative viability EC50 (Caco-2 [15]) [µM] |
| --- | --- | --- | --- | --- | --- | --- | --- | --- | --- | --- | --- | --- | --- | --- | --- | --- | --- | --- | --- | --- | --- | --- | --- | --- | --- | --- | --- | --- | --- | --- | --- | --- | --- | --- | --- |
| CCOC(=O)C1=C(N)Oc2ccc(Br)cc2C1C(C#N)C(=O)OCC (configuration not stated) [HA-14-1] | 100 ± 2.5 | 97.3 ± 9.6 | 98.2 ± 4.7 | 95.7 ± 7.4 | 96.8 ± 7.7 | 95 | 99.9 | 99 | 101 | 110 | 95.2 ± 7.3 | 105 ± 8.6 | 97 ± 0.99 | 98.2 ± 4.5 | 108.6 ± 0.14 | 93 | 100 | 90 | 97.7 | 99.3 | 99 ± 3.9 | 95.2 ± 4.1 | 104 ± 4.9 | 99.7 ± 4.6 | 99.5 ± 5 | 0 | 0 | 0 | 0 | 0 | > 10 | > 10 | > 10 | > 10 | > 10 |
| O=C(O)c1cc2cccc([N+](=O)[O-])c2[nH]1 | 102 | 99.2 | 98.8 | 112 | 112 | 100 | 97.9 | 101 | 102 | 104 | 90.8 | 101 | 100 | 99.5 | 111 | 97.2 | 99.2 | 93.6 | 97.6 | 110 | 98 | 91.4 | 88.4 | 101 | 116 | 0 | 0 | 0 | 0 | 0 | > 10 | > 10 | > 10 | > 10 | > 10 |
| O=C1NC(c2ccccc2)(c2ccccc2)C(=O)N1COP(=O)(O)O [fosphenytoin] | 97.1 | 92.7 | 100 | 109 | 91.4 | 98 | 98.5 | 101 | 95.1 | 102 | 89.4 | 97.3 | 90.4 | 87.7 | 102 | 110 | 84.9 | 102 | 106 | 94.6 | 97.6 | 102 | 86.3 | 104 | 105 | 0 | 0 | 0 | 0 | 0 | > 10 | > 10 | > 10 | > 10 | > 10 |
| O=C(O)c1ccc(Nc2ncc3c(n2)-c2ccc(Cl)cc2C(c2c(F)cccc2F)=NC3)cc1 [MLN8054] | 109 | 108 | 96.7 | 73.2 | 62.3 | 103 | 105 | 100 | 90 | 76.7 | 96.2 | 96.2 | 112 | 91.3 | 86.8 | 103 | 97.9 | 104 | 91.7 | 82.7 | 94.4 | 100 | 87 | 82 | 82.5 | 5.1 | 2 | 0.6 | 1.1 | 3.3 |  | > 10 | > 10 | > 10 | > 10 |
| C/N=C(/NC#N)NCCSCc1csc(NC(=N)N)n1 [tiotidine] | 96.4 | 105 | 98.3 | 108 | 113 | 105 | 96 | 97.9 | 98.6 | 106 | 99.5 | 97.2 | 91.7 | 101 | 104 | 91.5 | 96.6 | 96.6 | 92.8 | 108 | 102 | 94.4 | 104 | 104 | 110 | 0 | 0 | 0 | 0 | 0 | > 10 | > 10 | > 10 | > 10 | > 10 |
| O=c1n(CC2CO2)c(=O)n(CC2CO2)c(=O)n1CC1CO1 (configuration not stated) [teroxirone] | 99.9 | 100 | 92.8 | 91.1 | 51.8 | 103 | 95.7 | 104 | 102 | 96.2 | 94.4 | 91.2 | 99.3 | 84.1 | 90.9 | 100 | 105 | 98.5 | 102 | 80.8 | 102 | 101 | 95.6 | 93.2 | 84.3 | 4 | 0 | 0 | 0.4 | 0.4 |  | > 10 | > 10 | > 10 | > 10 |
| CCOC(=O)c1c(O)nc2cccc3c2c1-c1ccccc1C3=O [NQDI-1] | 106 | 102 | 98.4 | 76 | 57.2 | 95.6 | 101 | 102 | 97.7 | 101 | 91.5 | 96.8 | 95.7 | 95.2 | 104 | 104 | 103 | 102 | 95.9 | 94 | 89.6 | 103 | 89.7 | 92.9 | 98.3 | 5 | 0 | 0 | 0 | 0 |  | > 10 | > 10 | > 10 | > 10 |
| CCCCCCCCCCCCCCC[C@@H](O)[C@@H](N)CO [safingol] | 106 | 103 | 80 | 95.5 | 73.7 | 94 | 97.9 | 102 | 97.9 | 103 | 85.3 | 96.8 | 95.2 | 108 | 96.4 | 106 | 106 | 96.1 | 104 | 106 | 94.1 | 85.3 | 91 | 96.1 | 1.7 | 1.9 | 0 | 0 | 0 | 6 |  | > 10 | > 10 | > 10 | 2.87 |
| N=C(N)c1ccc(/N=N/Nc2ccc(C(=N)N)cc2)cc1 [diminazene-aceturate] | 112 | 113 | 90.2 | 86.5 | 50.5 | 99 | 98.3 | 103 | 98.2 | 107 | 93.7 | 101 | 99.9 | 99.2 | 94.8 | 99.7 | 109 | 107 | 102 | 91.3 | 104 | 102 | 112 | 91.1 | 76.6 | 4.2 | 0 | 0 | 0 | 1.9 |  | > 10 | > 10 | > 10 | > 10 |
| CC[C@H](NC(=O)c1c(O)c(-c2ccccc2)nc2ccccc12)c1ccccc1 [talnetant] | 102 | 99 | 94.6 | 100 | 74.2 | 100 | 92.7 | 104 | 95 | 101 | 104 | 97.3 | 104 | 96.5 | 106 | 109 | 102 | 98.4 | 102 | 102 | 97.9 | 98.9 | 101 | 98.1 | 90 | 1 | 0 | 0 | 0 | 0 |  | > 10 | > 10 | > 10 | > 10 |
| C#C[C@]1(O)CC[C@H]2[C@@H]3CCc4cc(O)ccc4[C@H]3CC[C@@]21C [ETHINYL ESTRADIOL] | 97.3 | 98 | 99.8 | 90.8 | 65.7 | 97.7 | 105 | 98.8 | 102 | 92.9 | 100 | 100 | 88.4 | 94.3 | 96.4 | 97.7 | 98.1 | 94.2 | 92.9 | 102 | 97.2 | 102 | 99.5 | 99.4 | 85.7 | 3 | 0 | 0 | 0 | 0.2 |  | > 10 | > 10 | > 10 | > 10 |
| O/N=C/c1ccc(-c2ccc(O)c(F)c2)c(Cl)c1O [FERb-033] | 95.7 | 104 | 100 | 99.8 | 71.1 | 102 | 97.1 | 99.5 | 96.9 | 93.9 | 104 | 101 | 100 | 98.9 | 84.8 | 97.7 | 106 | 98.8 | 103 | 95.7 | 98.1 | 95.2 | 93.4 | 91.9 | 81.4 | 1.2 | 0 | 0.3 | 0 | 0.8 |  | > 10 | > 10 | > 10 | > 10 |
